# Results reported in PubChem BioAssay AID2060492 (Molecular Pharmacology Branch, DTP, NCI, 2025).
# pIC50: −log10 of the molar value.
# System: 695427-040-R-J1-PDC complex spheroids, viability percent T/C
# Experiment: Anticancer human tumor 695427-040-R-J1-PDC patient-derived colon adenocarcinoma cell line growth inhibition [GQUAD]
# Details: for pIC50: curve of first compound; for viability, T/C: stronger effect = lower value
# How it was run: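 Viability of tumor cells grown as complex spheroids with endothelial and stromal cells, exposed to drug combinations. Top concentration at or near clinical Cmax (else 10 microM), diluted in half-log increments.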
# [1] = second compound 0.0316 µM, first compound 0.0316 µM
# [2] = second compound 0.0316 µM, first compound 0.1 µM
# [3] = second compound 0.0316 µM, first compound 0.316 µM
# [4] = second compound 0.0316 µM, first compound 1 µM
# [5] = second compound 0.0316 µM, first compound 3.16 µM
# [6] = second compound 0.0316 µM, first compound 10 µM
# [7] = second compound 0.1 µM, first compound 0.0316 µM
# [8] = second compound 0.1 µM, first compound 0.1 µM
# [9] = second compound 0.1 µM, first compound 0.316 µM
# [10] = second compound 0.1 µM, first compound 1 µM
# [11] = second compound 0.1 µM, first compound 3.16 µM
# [12] = second compound 0.1 µM, first compound 10 µM
# [13] = second compound 0.316 µM, first compound 0.0316 µM
# [14] = second compound 0.316 µM, first compound 0.1 µM
# [15] = second compound 0.316 µM, first compound 0.316 µM
# [16] = second compound 0.316 µM, first compound 1 µM
# [17] = second compound 0.316 µM, first compound 3.16 µM
# [18] = second compound 0.316 µM, first compound 10 µM
# [19] = second compound 1 µM, first compound 0.0316 µM
# [20] = second compound 1 µM, first compound 0.1 µM
# [21] = second compound 1 µM, first compound 0.316 µM
# [22] = second compound 1 µM, first compound 1 µM
# [23] = second compound 1 µM, first compound 3.16 µM
# [24] = second compound 1 µM, first compound 10 µM
# [25] = second compound 3.16 µM, first compound 0.0316 µM
# [26] = second compound 3.16 µM, first compound 0.1 µM
# [27] = second compound 3.16 µM, first compound 0.316 µM
# [28] = second compound 3.16 µM, first compound 1 µM
# [29] = second compound 3.16 µM, first compound 3.16 µM
# [30] = second compound 3.16 µM, first compound 10 µM
# [31] = second compound 10 µM, first compound 0.0316 µM
# [32] = second compound 10 µM, first compound 0.1 µM
# [33] = second compound 10 µM, first compound 0.316 µM
# [34] = second compound 10 µM, first compound 1 µM
# [35] = second compound 10 µM, first compound 3.16 µM
# [36] = second compound 10 µM, first compound 10 µM
# [37] = second compound 0.0316 µM, first compound 0.000999 µM
# [38] = second compound 0.0316 µM, first compound 0.00316 µM
# [39] = second compound 0.0316 µM, first compound 0.00999 µM
# [40] = second compound 0.0316 µM, first compound 0.0999 µM
# [41] = second compound 0.1 µM, first compound 0.000999 µM
# [42] = second compound 0.1 µM, first compound 0.00316 µM
# [43] = second compound 0.1 µM, first compound 0.00999 µM
# [44] = second compound 0.1 µM, first compound 0.0999 µM
# [45] = second compound 0.316 µM, first compound 0.000999 µM
# [46] = second compound 0.316 µM, first compound 0.00316 µM
# [47] = second compound 0.316 µM, first compound 0.00999 µM
# [48] = second compound 0.316 µM, first compound 0.0999 µM
# [49] = second compound 1 µM, first compound 0.000999 µM
# [50] = second compound 1 µM, first compound 0.00316 µM
# [51] = second compound 1 µM, first compound 0.00999 µM
# [52] = second compound 1 µM, first compound 0.0999 µM
# [53] = second compound 3.16 µM, first compound 0.000999 µM
# [54] = second compound 3.16 µM, first compound 0.00316 µM
# [55] = second compound 3.16 µM, first compound 0.00999 µM
# [56] = second compound 3.16 µM, first compound 0.0999 µM
# [57] = second compound 10 µM, first compound 0.000999 µM
# [58] = second compound 10 µM, first compound 0.00316 µM
# [59] = second compound 10 µM, first compound 0.00999 µM
# [60] = second compound 10 µM, first compound 0.0999 µM
# 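Further: spheroids exposed to compounds for seven days before readout.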
structure (smiles),measurement,setting,value
CC(=O)O[C@H]1C(=O)[C@@]2(C)[C@H]([C@H](OC(=O)c3ccccc3)[C@]3(O)C[C@H](OC(=O)[C@H](O)[C@@H](NC(=O)c4ccccc4)c4ccccc4)C(C)=C1C3(C)C)[C@]1(OC(C)=O)CO[C@@H]1C[C@@H]2O + CN(C)c1ccc(Nc2c3ccc(NC(=O)CCN4CCCC4)cc3nc3cc(NC(=O)CCN4CCCC4)ccc23)cc1,pIC50,second compound 0.0316 µM,< 5.00
same,pIC50,second compound 0.1 µM,< 5.00
same,pIC50,second compound 0.316 µM,< 5.00
same,pIC50,second compound 1 µM,< 5.00
same,pIC50,second compound 3.16 µM,< 5.00
same,pIC50,second compound 10 µM,< 5.00
same,"viability, T/C",[1],98.5%
same,"viability, T/C",[2],90.7%
same,"viability, T/C",[3],90.4%
same,"viability, T/C",[4],85.6%
same,"viability, T/C",[5],84%
same,"viability, T/C",[6],73.2%
same,"viability, T/C",[7],98.5%
same,"viability, T/C",[8],87.8%
same,"viability, T/C",[9],89.3%
same,"viability, T/C",[10],79.8%
same,"viability, T/C",[11],79.5%
same,"viability, T/C",[12],68.7%
same,"viability, T/C",[13],106%
same,"viability, T/C",[14],96%
same,"viability, T/C",[15],85.5%
same,"viability, T/C",[16],84.5%
same,"viability, T/C",[17],82.6%
same,"viability, T/C",[18],70.1%
same,"viability, T/C",[19],89.7%
same,"viability, T/C",[20],88.4%
same,"viability, T/C",[21],89.8%
same,"viability, T/C",[22],85.5%
same,"viability, T/C",[23],76.3%
same,"viability, T/C",[24],69.8%
same,"viability, T/C",[25],92.8%
same,"viability, T/C",[26],96.7%
same,"viability, T/C",[27],88.7%
same,"viability, T/C",[28],84.3%
same,"viability, T/C",[29],77.4%
same,"viability, T/C",[30],66.3%
same,"viability, T/C",[31],86.9%
same,"viability, T/C",[32],84.8%
same,"viability, T/C",[33],84.5%
same,"viability, T/C",[34],75.8%
same,"viability, T/C",[35],71.2%
same,"viability, T/C",[36],61.9%
Cc1[nH]c2ccccc2c1CCNCc1ccc(/C=C/C(=O)NO)cc1 + Cc1[nH]c2ccc(F)cc2c1-c1nc2c3cccnc3c3ncccc3c2[nH]1,pIC50,second compound 0.0316 µM,< 6.50
same,pIC50,second compound 0.1 µM,< 6.50
same,pIC50,second compound 0.316 µM,< 6.50
same,pIC50,second compound 1 µM,< 6.50
same,pIC50,second compound 3.16 µM,< 6.50
same,pIC50,second compound 10 µM,< 6.50
same,"viability, T/C",[37],109%
same,"viability, T/C",[38],90%
same,"viability, T/C",[39],101%
same,"viability, T/C",[1],102%
same,"viability, T/C",[40],106%
same,"viability, T/C",[3],94.5%
same,"viability, T/C",[41],115%
same,"viability, T/C",[42],94.5%
same,"viability, T/C",[43],91.1%
same,"viability, T/C",[7],93.4%
same,"viability, T/C",[44],95.7%
same,"viability, T/C",[9],88.6%
same,"viability, T/C",[45],98.8%
same,"viability, T/C",[46],84.8%
same,"viability, T/C",[47],94.2%
same,"viability, T/C",[13],104%
same,"viability, T/C",[48],100%
same,"viability, T/C",[15],86.7%
same,"viability, T/C",[49],94.3%
same,"viability, T/C",[50],88.6%
same,"viability, T/C",[51],96.8%
same,"viability, T/C",[19],93.5%
same,"viability, T/C",[52],98.9%
same,"viability, T/C",[21],90.8%
same,"viability, T/C",[53],75.2%
same,"viability, T/C",[54],78.3%
same,"viability, T/C",[55],86%
same,"viability, T/C",[25],74.5%
same,"viability, T/C",[56],78%
same,"viability, T/C",[27],67.3%
same,"viability, T/C",[57],74.8%
same,"viability, T/C",[58],77.6%
same,"viability, T/C",[59],71.8%
same,"viability, T/C",[31],75.9%
same,"viability, T/C",[60],74.8%
same,"viability, T/C",[33],63.4%
COc1ncnc(C2CC2)c1-c1ncc2cnn(Cc3ccc(-c4nc(C(F)(F)F)cn4C(C)C)cc3)c2n1 + CN(C)c1ccc(Nc2c3ccc(NC(=O)CCN4CCCC4)cc3nc3cc(NC(=O)CCN4CCCC4)ccc23)cc1,pIC50,second compound 0.0316 µM,< 5.00
same,pIC50,second compound 0.1 µM,< 5.00
same,pIC50,second compound 0.316 µM,< 5.00
same,pIC50,second compound 1 µM,< 5.00
same,pIC50,second compound 3.16 µM,< 5.00
same,pIC50,second compound 10 µM,< 5.00
same,"viability, T/C",[1],101%
same,"viability, T/C",[2],92.4%
same,"viability, T/C",[3],91.7%
same,"viability, T/C",[4],96.4%
same,"viability, T/C",[5],105%
same,"viability, T/C",[6],102%
same,"viability, T/C",[7],105%
same,"viability, T/C",[8],95.4%
same,"viability, T/C",[9],91.1%
same,"viability, T/C",[10],93.2%
same,"viability, T/C",[11],101%
same,"viability, T/C",[12],101%
same,"viability, T/C",[13],97.7%
same,"viability, T/C",[14],97.5%
same,"viability, T/C",[15],88.9%
same,"viability, T/C",[16],94.3%
same,"viability, T/C",[17],96.1%
same,"viability, T/C",[18],83.1%
same,"viability, T/C",[19],96.7%
same,"viability, T/C",[20],93.7%
same,"viability, T/C",[21],91.5%
same,"viability, T/C",[22],91.3%
same,"viability, T/C",[23],101%
same,"viability, T/C",[24],93.3%
same,"viability, T/C",[25],93.9%
same,"viability, T/C",[26],91.7%
same,"viability, T/C",[27],84.9%
same,"viability, T/C",[28],96.6%
same,"viability, T/C",[29],99%
same,"viability, T/C",[30],92.9%
same,"viability, T/C",[31],83.3%
same,"viability, T/C",[32],80.6%
same,"viability, T/C",[33],85.5%
same,"viability, T/C",[34],80.8%
same,"viability, T/C",[35],79.7%
same,"viability, T/C",[36],75%
CCc1c2c(nc3ccc(O)cc13)-c1cc3c(c(=O)n1C2)COC(=O)[C@]3(O)CC + Cc1cnc(CNC(=O)c2c(=O)c3ccc(N4CCCN(C)CC4)nc3n3c2sc2ccccc23)cn1,pIC50,second compound 0.0316 µM,7.09
same,pIC50,second compound 0.1 µM,7.31
same,pIC50,second compound 0.316 µM,7.56
same,pIC50,second compound 1 µM,7.58
same,pIC50,second compound 3.16 µM,8.52
same,pIC50,second compound 10 µM,> 9.00
same,"viability, T/C",[37],82.6%
same,"viability, T/C",[38],75.7%
same,"viability, T/C",[39],81.1%
same,"viability, T/C",[1],57.9%
same,"viability, T/C",[40],50.1%
same,"viability, T/C",[3],34.5%
same,"viability, T/C",[41],91.4%
same,"viability, T/C",[42],68.6%
same,"viability, T/C",[43],73.2%
same,"viability, T/C",[7],47.5%
same,"viability, T/C",[44],47.5%
same,"viability, T/C",[9],33.8%
same,"viability, T/C",[45],85.3%
same,"viability, T/C",[46],57%
same,"viability, T/C",[47],63.6%
same,"viability, T/C",[13],49.8%
same,"viability, T/C",[48],43.2%
same,"viability, T/C",[15],31.1%
same,"viability, T/C",[49],66.1%
same,"viability, T/C",[50],63.6%
same,"viability, T/C",[51],53.1%
same,"viability, T/C",[19],47.7%
same,"viability, T/C",[52],40.4%
same,"viability, T/C",[21],19.1%
same,"viability, T/C",[53],55.1%
same,"viability, T/C",[54],47.3%
same,"viability, T/C",[55],44.8%
same,"viability, T/C",[25],38.9%
same,"viability, T/C",[56],31.2%
same,"viability, T/C",[27],7.33%
same,"viability, T/C",[57],39.7%
same,"viability, T/C",[58],33.7%
same,"viability, T/C",[59],40.2%
same,"viability, T/C",[31],37.7%
same,"viability, T/C",[60],9.89%
same,"viability, T/C",[33],0.52%
